From ChEMBL document CHEMBL1121374, “Analgesic narcotic antagonists. 4. 7-Methyl-N-(cycloalkylmethyl)-3-hydroxymorphinan-6-ones and -isomorphinan-6-ones” (1980)

Tests used:
Assay type in all cases: functional
Rattus norvegicus [1] = experiment: Antagonist activity in rat tail flick assay by intraperitoneal administration
Mus musculus = experiment: Compound was tested for analgesia in mouse writhing assay by subcutaneous administration
Rattus norvegicus [2] = organism: Rattus norvegicus; experiment: Ratio of agonist potency to antagonist potency was determined
Rattus norvegicus [3] = experiment: Antagonist activity in rat tail flick assay by subcutaneous administration
[4] = Rattus norvegicus, Tail, ip, read-out: ED50
[5] = Mus musculus, sc, read-out: ED50
[6] = Rattus norvegicus, Tail, sc, read-out: ED50

SMILES	ED50 (Rattus norvegicus [1]; [4])	ED50 (Mus musculus; [5])	Ratio (Rattus norvegicus [2])	ED50 (Mus musculus)	further results
C=CCN1CC[C@]23c4c5ccc(O)c4O[C@H]2[C@@H](O)C=C[C@H]3[C@H]1C5 [NALORPHINE]	2.47 µmol/kg	3.51 µmol/kg	1.42	–	–
COc1ccc2c(c1)C13CCN(C)C(C2)[C@@H]1[C@@H](C)[C@H](C)C(=O)C3 (stereo partly specified)	–	2.16 µmol/kg	–	–	ED50 (Rattus norvegicus [3]; [6]): 17.9 µmol/kg
CC[C@H]1[C@H](C)C(=O)CC23CCN(C)C(Cc4ccc(OC)cc42)[C@H]13 (stereo partly specified)	–	0.49 µmol/kg	–	–	ED50 (Rattus norvegicus [3]; [6]): 2.75 µmol/kg
COc1ccc2c(c1)C13CCN(CC4CCC4)C(C2)[C@H]1[C@H](C)[C@@H](C)C(=O)C3 (stereo partly specified)	> 25 µmol/kg	> 25 µmol/kg	–	–	–
COc1ccc2c(c1)C13CCN(C)C(C2)[C@@H]1C[C@H](C)C(=O)C3 (stereo in doubt; 6C a)	–	–	–	0.5 µM/kg	ED50 (Rattus norvegicus [3]): 1.6 µM/kg
CC[C@@H]1[C@@H](C)C(=O)CC23CCN(C)C(Cc4ccc(O)cc42)[C@@H]13 (stereo partly specified)	–	7.53 µmol/kg	–	–	ED50 (Rattus norvegicus [3]; [6]): 7.45 µmol/kg
C[C@@H]1C[C@@H]2C3Cc4ccc(O)cc4C2(CCN3C)CC1=O (stereo in doubt; 7T a)	–	–	–	0.91 µM/kg	ED50 (Rattus norvegicus [3]): 1.09 µM/kg
COc1ccc2c(c1)C13CCN(CC4CCC4)C(C2)[C@@H]1C[C@H](C)C(=O)C3.Cl (stereo partly specified)	> 25 µmol/kg	–	–	3.58 µM/kg	–
CC[C@H]1[C@H](C)C(=O)CC23CCN(CC4CCC4)C(Cc4ccc(O)cc42)[C@H]13 (stereo partly specified)	4.84 µmol/kg	8.19 µmol/kg	1.7	–	–
COc1ccc2c3c1O[C@H]1[C@@H](O)C=C[C@H]4[C@@H](C2)N(C)CC[C@@]341 [CODEINE]	–	10.2 µmol/kg	–	–	ED50 (Rattus norvegicus [3]; [6]): 75 µmol/kg
COc1ccc2c(c1)C13CCN(CC4CCC4)C(C2)[C@H]1C[C@@H](C)C(=O)C3.Cl (stereo partly specified)	> 38 µmol/kg	–	–	7.31 µM/kg	–
Oc1ccc2c(c1)[C@@]13CCCC[C@@]1(O)[C@@H](C2)N(CC1CCC1)CC3 [BUTORPHANOL]	2 µmol/kg	0.34 µmol/kg	0.17	–	–
COc1ccc2c(c1)C13CCN(CC4CC4)C(C2)[C@@H]1[C@@H](C)[C@H](C)C(=O)C3.Cl (stereo partly specified)	12.1 µmol/kg	2.64 µmol/kg	0.22	–	–
COc1ccc2c(c1)C13CCN(CC4CCC4)C(C2)[C@H]1C[C@@H](C)C(=O)C3 (stereo partly specified)	–	–	–	20.3 µM/kg	–
C[C@H]1[C@H](C)C(=O)CC23CCN(C)C(Cc4ccc(O)cc42)[C@H]13 (stereo partly specified)	–	0.4 µmol/kg	–	–	ED50 (Rattus norvegicus [3]; [6]): 12.4 µmol/kg
COc1ccc2c(c1)C13CCN(CC4CCC4)C(C2)[C@@H]1[C@@H](C)[C@H](C)C(=O)C3 (stereo partly specified)	> 25 µmol/kg	15.8 µmol/kg	–	–	–
C[C@H]1[C@H]2Cc3ccc(O)cc3[C@]1(C)CCN2CC1CC1 [CYCLAZOCINE]	0.81 µmol/kg	0.41 µmol/kg	0.5	–	–
CC(C)=CCN1CC[C@]2(C)c3cc(O)ccc3C[C@H]1[C@H]2C [(+)-PENTAZOCINE]	36.4 µmol/kg	12.9 µmol/kg	0.36	–	–
COc1ccc2c(c1)C13CCN(C)C(C2)[C@@H]1C[C@H](C)C(=O)C3 (stereo in doubt; 6C)	–	–	–	1.72 µM/kg	ED50 (Rattus norvegicus [3]; [6]): 2.32 µmol/kg
CC[C@H]1[C@H](C)C(=O)CC23CCN(CC4CC4)C(Cc4ccc(O)cc42)[C@H]13 (stereo partly specified)	2.23 µmol/kg	> 25 µmol/kg	–	–	–
C[C@@H]1C[C@@H]2C3Cc4ccc(O)cc4C2(CCN3CC2CCC2)CC1=O (stereo in doubt; 13T)	13.8 µmol/kg	–	0.2	2.6 µM/kg	–
C[C@@H]1[C@@H](C)C(=O)CC23CCN(CC4CCC4)C(Cc4ccc(O)cc42)[C@@H]13 (stereo partly specified)	> 25 µmol/kg	0.79 µmol/kg	–	–	–
CN1CC[C@]23c4c5ccc(O)c4O[C@H]2C(=O)CC[C@H]3[C@H]1C5 [HYDROMORPHONE]	–	–	–	–	ED50 (Rattus norvegicus [3]; [6]): 1.34 µmol/kg
C[C@H]1[C@H](C)C(=O)CC23CCN(CC4CCC4)C(Cc4ccc(O)cc42)[C@H]13 (stereo partly specified)	5.66 µmol/kg	2.21 µmol/kg	0.4	–	–
COc1ccc2c(c1)C13CCN(CC4CCC4)C(C2)[C@@H]1C[C@H](C)C(=O)C3 (stereo partly specified)	–	–	–	0.58 µM/kg	–
COc1ccc2c(c1)C13CCN(CC4CC4)C(C2)[C@H]1[C@H](C)[C@@H](C)C(=O)C3 (stereo partly specified)	> 26 µmol/kg	> 26 µmol/kg	–	–	–
C[C@H]1C[C@H]2C3Cc4ccc(O)cc4C2(CCN3CC2CC2)CC1=O (stereo in doubt; 12C)	7.4 µmol/kg	3.28 µmol/kg	0.44	–	–

SMILES	ED50 (Rattus norvegicus [1]; [4])	ED50 (Mus musculus; [5])	Ratio (Rattus norvegicus [2])	ED50 (Mus musculus)	further results
C[C@H]1C[C@H]2C3Cc4ccc(O)cc4C2(CCN3C)CC1=O (stereo in doubt; 7C a)	–	0.39 µmol/kg	–	–	ED50 (Rattus norvegicus [3]): 1.82 µM/kg
CC[C@@H]1[C@@H](C)C(=O)CC23CCN(CC4CCC4)C(Cc4ccc(O)cc42)[C@@H]13 (stereo partly specified)	> 25 µmol/kg	> 25 µmol/kg	–	–	–
C[C@@H]1C[C@@H]2C3Cc4ccc(O)cc4C2(CCN3CC2CC2)CC1=O (stereo in doubt; 12T)	2.24 µmol/kg	8.9 µmol/kg	4	–	–
COc1ccc2c(c1)C13CCN(CC4CC4)C(C2)[C@@H]1C[C@H](C)C(=O)C3 (stereo partly specified)	–	–	0.04	0.66 µM/kg	ED50 (Rattus norvegicus [1]): 14.9 µM/kg
C[C@H]1C[C@H]2C3Cc4ccc(O)cc4C2(CCN3CC2CCC2)CC1=O (stereo in doubt; 13C)	–	–	–	0.047 µM/kg	–
C[C@@H]1[C@@H](C)C(=O)CC23CCN(CC4CC4)C(Cc4ccc(O)cc42)[C@@H]13 (stereo partly specified)	1.02 µmol/kg	4.5 µmol/kg	4.4	–	–
COc1ccc2c(c1)C13CCN(C)C(C2)[C@H]1C[C@@H](C)C(=O)C3 (stereo in doubt; 6T)	–	–	–	5.54 µM/kg	ED50 (Rattus norvegicus [3]; [6]): > 70 µmol/kg
COc1ccc2c(c1)C13CCN(CC4CC4)C(C2)[C@H]1C[C@@H](C)C(=O)C3.Cl (stereo partly specified)	–	–	–	>40 µM/kg	ED50 (Rattus norvegicus [1]): 3.19 µM/kg
CC[C@@H]1[C@@H](C)C(=O)CC23CCN(CC4CC4)C(Cc4ccc(O)cc42)[C@@H]13 (stereo partly specified)	> 25 µmol/kg	> 25 µmol/kg	–	–	–
COc1ccc2c(c1)C13CCN(C)C(C2)[C@H]1C[C@@H](C)C(=O)C3 (stereo in doubt; 6T a)	–	–	–	15.7 µM/kg	–
C[C@H]1C[C@H]2C3Cc4ccc(O)cc4C2(CCN3CC2CC2)CC1=O (stereo in doubt; 12C a)	–	–	0.17	2.4 µM/kg	ED50 (Rattus norvegicus [1]): 14.4 µM/kg
C[C@@H]1C[C@@H]2C3Cc4ccc(O)cc4C2(CCN3C)CC1=O (stereo in doubt; 7T)	–	0.75 µmol/kg	–	–	ED50 (Rattus norvegicus [3]; [6]): 1.33 µmol/kg
CC[C@H]1[C@H](C)C(=O)CC23CCN(CC4CC4)C(Cc4ccc(OC)cc42)[C@H]13.Cl (stereo partly specified)	15.7 µmol/kg	8.04 µmol/kg	0.51	–	–
COc1ccc2c(c1)C13CCN(CC4CC4)C(C2)[C@H]1C[C@@H](C)C(=O)C3 (stereo partly specified)	3.6 µmol/kg	> 25 µmol/kg	–	–	–
CC[C@@H]1[C@@H](C)C(=O)CC23CCN(CC4CC4)C(Cc4ccc(OC)cc42)[C@@H]13 (stereo partly specified)	> 25 µmol/kg	> 25 µmol/kg	–	–	–
C[C@@H]1[C@@H](C)C(=O)CC23CCN(C)C(Cc4ccc(O)cc42)[C@@H]13 (stereo partly specified)	–	0.58 µmol/kg	–	–	ED50 (Rattus norvegicus [3]; [6]): 0.68 µmol/kg
CC[C@@H]1[C@@H](C)C(=O)CC23CCN(CC4CCC4)C(Cc4ccc(OC)cc42)[C@@H]13 (stereo partly specified)	> 25 µmol/kg	> 25 µmol/kg	–	–	–
C[C@H]1[C@H](C)C(=O)CC23CCN(CC4CC4)C(Cc4ccc(O)cc42)[C@H]13 (stereo partly specified)	0.35 µmol/kg	23 µmol/kg	65	–	–
C[C@H]1C[C@H]2C3Cc4ccc(O)cc4C2(CCN3CC2CCC2)CC1=O (stereo in doubt; 13C a)	> 30 µmol/kg	–	–	0.35 µM/kg	–
COc1ccc2c3c1O[C@H]1C(=O)CC[C@H]4[C@@H](C2)N(C)CC[C@]314 [HYDROCODONE]	–	2.36 µmol/kg	–	–	ED50 (Rattus norvegicus [3]; [6]): 5.2 µmol/kg
COc1ccc2c(c1)C13CCN(CC4CC4)C(C2)[C@@H]1C[C@H](C)C(=O)C3.Cl (stereo partly specified)	–	–	0.04	1.6 µM/kg	ED50 (Rattus norvegicus [1]): 42.6 µM/kg
CC[C@H]1[C@H](C)C(=O)CC23CCN(C)C(Cc4ccc(O)cc42)[C@H]13 (stereo partly specified)	–	0.14 µmol/kg	–	–	ED50 (Rattus norvegicus [3]; [6]): 1.5 µmol/kg
CC[C@H]1[C@H](C)C(=O)CC23CCN(CC4CCC4)C(Cc4ccc(OC)cc42)[C@H]13 (stereo partly specified)	> 24 µmol/kg	18.7 µmol/kg	–	–	–
C[C@@H]1C[C@@H]2C3Cc4ccc(O)cc4C2(CCN3CC2CCC2)CC1=O (stereo in doubt; 13T a)	–	–	–	0.93 µM/kg	ED50 (Rattus norvegicus [1]): >24 µM/kg
CN1CC[C@]23c4c5ccc(O)c4O[C@H]2[C@@H](O)C=C[C@H]3[C@H]1C5 [MORPHINE]	–	–	–	–	ED50 (Rattus norvegicus [3]; [6]): 19.3 µmol/kg
C[C@H]1C[C@H]2C3Cc4ccc(O)cc4C2(CCN3C)CC1=O (stereo in doubt; 7C)	–	–	–	0.52 µM/kg	ED50 (Rattus norvegicus [3]): 70 µM/kg
